Measured values taken from patent US11576892B2, “Benzopyran derivatives and uses thereof” (Novation Pharmaceuticals Inc., priority 2015, dated 2023).

Legend:
[1] = test system: IL-6 release from THP 1 cells; test: IL-6 release from THP 1 cells measured by ELISA; format: cell-based, human; details: IFNγ/LPS-stimulated THP 1 cells, 24 h
Protocol: (§1) The THP 1 cell line is generally available and is described by Tsuchia et. al. Tsuchiya, Yamabe et al. (1980). Establishment and characterization of a human acute monocytic leukemia cell line (THP-1). Int J Cancer. 26: 171-176.
(§2) 900 μl THP 1 cells (0.5×10^6 cells) together with 100 Uγ interferon/0.9 ml RPMI 1640 medium (containing 2 mM L glutamine and 5% heat inactivated fetal calf serum) are pipetted into 24-well culture plates. 100 μl of the compound to be tested are then added. After 3 hours at 37° C. in 5% CO2/95% air, 10 μl lipopolysaccharide (LPS) 500 μg/ml is added and the incubation continued for a further 24 hours. Appropriate controls (with and without stimulus, solvent) are also included. The media are then removed and clarified by centrifugation at 1000 g for 10 min. Samples are stored at […] until the determinations can be made. IL 1β, IL 6 IL-12, and IL-23 assays are determined using commercially available ELISA kits. In these tests, the compounds of the disclosure may inhibit IL-1β, IL-6, IL-12 and IL-23 release at a concentration of about 10 to 50 μM. The compounds are non-toxic based on resazurin measurements as described in Didiot, Hewett et al. (2013). Identification of cardiac glycoside molecules as inhibitors of c-Myc IRES-mediated translation. J Biomol Screen. 18: 407-419.

IL-6 release from PBMCs = IL-6 release from PBMCs measured by ELISA; format: cell-based; details: LPS or PHA stimulated human PBMCs
Protocol: (§3) Mononuclear cells are obtained from the blood of healthy volunteers via centrifugation and cultivated on tissue culture dishes with the test compound at various concentrations Schnyder, Bollinger et al. (1990). Inhibition of interleukin-1 release by IX 207-887. Agents Actions. 30: 350-362. Fresh human mononuclear cells were isolated on Ficoll-Paque gradient and washed several times. Fresh medium, test compound and LPS (10 μg/ml) or PHA (5 μg/ml) as stimulant are added and the monocytes incubated for a further day. The media are then removed and clarified by centrifugation at 1000×g for 10 min. Samples are stored at […] until the determinations can be made. IFNγ, IL 1β, IL 6, and IL-17 are determined using commercially available ELISA kits.

IL-1β release from PBMCs = IL-1β release from PBMCs measured by ELISA; format: cell-based; details: LPS or PHA stimulated human PBMCs
Protocol: as §3

IL-6 mRNA [2] = test: mRNA stability reporter gene (luciferase) assay, IL-6; format: cell-based; details: 24 h; for IC50: luciferase reporter
Protocol: (§4) The basic principle of a reporter gene assay for determining compounds that destabilize mRNA is described in detail in WO 00/39314. A number of these assays for various drug targets have been developed and were tested with the compounds described in this disclosure. For THP-1 cells, compound is added at the time of the addition of LPS and luciferase measurements are taken 24 hours later or as indicated. For other cell lines, cells were plated in 96 well plates at 5*10^5 cells per 100 ul per well and incubated over night at 37° C. Compounds were then added and luciferase activity was measured after 24 hours. The activity was compared to other mRNA stability assays established for a range of other drug targets and found to be specific for IL-6, IL-12p40 and IL-23p19. Luciferase activity in the IL-6, IL-12 and IL-23 assays was inhibited by 10 μM benzopyran derivatives by >40% (Table IV).

IL-12 p40 mRNA = test: mRNA stability reporter gene (luciferase) assay, IL-12 p40; format: cell-based; details: 10 μM, 24 h, n.a. = no activity
Protocol: as §4

IL-23 p19 mRNA = test: mRNA stability reporter gene (luciferase) assay, IL-23 p19; format: cell-based; details: 10 μM, 24 h, n.a. = no activity
Protocol: as §4

Htt mRNA = test: mRNA stability reporter gene (luciferase) assay, Htt; format: cell-based; details: 10 μM, 24 h, n.a. = no activity
Protocol: as §4

SNCA mRNA = test: mRNA stability reporter gene (luciferase) assay, SNCA; format: cell-based; details: 10 μM, 24 h, n.a. = no activity
Protocol: as §4

APP mRNA = test: mRNA stability reporter gene (luciferase) assay, APP; format: cell-based; details: 10 μM, 24 h, n.a. = no activity
Protocol: as §4

DNMT1 mRNA = test: mRNA stability reporter gene (luciferase) assay, DNMT1; format: cell-based; details: 10 μM, 24 h, n.a. = no activity
Protocol: as §4

[3] = test system: IL-1β release from THP 1 cells; test: IL-1β release from THP 1 cells measured by ELISA; format: cell-based, human; details: IFNγ/LPS-stimulated THP 1 cells
Protocol: as §1, §2

[4] = test system: IL-23 release from THP 1 cells; test: IL-23 release from THP 1 cells measured by ELISA; format: cell-based, human; details: IFNγ/LPS-stimulated THP 1 cells
Protocol: as §1, §2

IL-6 mRNA [5] = test: IL-6 mRNA levels in IFN-γ/LPS-stimulated THP-1 cells (RT-PCR); format: cell-based, human; details: γIFN/LPS, 24h, compounds 10 μM, RT-PCR vs β-actin
Protocol: Total RNA was isolated at t=24 h from IFN-γ/LPS-stimulated THP-1 cells exposed to compounds (10 μM) or DMSO (solvent control) for 24 […], using the RNeasy Midi Kit (Qiagen), according to the manufacturer's instructions, and eluted in DEPC-treated Milli-Q H2O. Quantity and purity of RNA were determined by absorbance at 260 and 280 nm.
For RT-PCR analysis, 1 μg of total RNA was reverse transcribed using AMV reverse transcriptase (Life Sciences Inc., St. Petersburg, Fla.), then amplified by the PCR method. Each PCR reaction also contained a set of β-actin primers as internal control. The levels of the expected PCR product were compared to the constant levels of β-actin. The size of the PCR products was compared to MspI digested pBR322 standards (New England Biolabs). PCR products were analyzed on a 4% agarose gel.
Nucleotide sequences for the oligonucleotide 5′ and 3′ primers, respectively, were: […]

IFNγ release from PBMCs = IFNγ release from PBMCs measured by ELISA; format: cell-based; details: 5 μM, human PBMCs
Protocol: as §3

IL-17 release from PBMCs = IL-17 release from PBMCs measured by ELISA; format: cell-based; details: human PBMCs
Protocol: as §3

IFN-gamma = test: LPS-induced cytokine release in mice, serum IFN-gamma; format: in vivo; details: 100 mg/kg pre-treatment; serum 4 h post LPS; CD-1 mouse
Protocol: (§5) Compounds were evaluated on intra-peritoneal LPS-induced cytokine release measured in serum in the CD-1 mouse. Vehicle, Test item and positive control were administered 1 h before LPS injection as well 30 min post LPS injection (except as otherwise varied herein). In serum samples collected at 4 h post LPS injection, following cytokines were measured by multiplex on MSD 10 V-plex platform: TNF-alpha, IFN-gamma, IL-1beta, IL-2, IL-4, IL-5, IL-6, IL-10, IL-12, KC/GRO. All cytokines except IL-5 were induced by LPS injection (compared with saline injection).
(§6) Serum samples collected at 4h post LPS challenge were analyzed in duplicate wells using multiplex on MSD 10 V-plex platform. […] FIG. 1: Effect of test compounds 333 (TI1) and 1781 (TI2) on IFN-gamma levels in serum of LPS treated mice. FIG. 2: Effect of test compounds 333 (TI1) and 1781 (TI2) on IFN-gamma levels in serum of LPS treated mice (values of individual animals)

IL-12 = test: LPS-induced cytokine release in mice, serum IL-12; format: in vivo; details: 100 mg/kg pre-treatment; serum 4 h post LPS; CD-1 mouse
Protocol: as §5, §6

IL-4 = test: LPS-induced cytokine release in mice, serum IL-4; format: in vivo; details: 100 mg/kg pre-treatment; serum 4 h post LPS; CD-1 mouse
Protocol: as §5, §6

TNF-alpha = test: LPS-induced cytokine release in mice, serum TNF-alpha; format: in vivo; details: 100 mg/kg pre-treatment; serum 4 h post LPS; CD-1 mouse
Protocol: as §5, §6

Row | SMILES | IL-6 release from THP 1 cells, % control ([1]; 10 μM) [% control] | IL-6 release from THP 1 cells, % control ([1]; 40 μM) [% control] | IL-6 release from THP 1 cells, % control ([1]; 100 μM) [% control] | IL-6 release from PBMCs (% control) (IL-6 release from PBMCs; 2.5 μM) | IL-6 release from PBMCs (% control) (IL-6 release from PBMCs; 5 μM) | IL-6 release from PBMCs (% control) (IL-6 release from PBMCs; 10 μM) | IL-6 release from PBMCs (% control) (IL-6 release from PBMCs; 20 μM) | IL-1β release from PBMCs (% control) (IL-1β release from PBMCs; 2.5 μM) | IL-1β release from PBMCs (% control) (IL-1β release from PBMCs; 5 μM) | IL-1β release from PBMCs (% control) (IL-1β release from PBMCs; 10 μM) | IL-1β release from PBMCs (% control) (IL-1β release from PBMCs; 20 μM) | IL-12 p40 mRNA stability assay (% inhibition) (IL-12 p40 mRNA) | IL-23 p19 mRNA stability assay (% inhibition) (IL-23 p19 mRNA) | IL-1β release from THP 1 cells, % control at 10 μM [3] [% control] | IL-23 release from THP 1 cells, % control at 10 μM [4] [% control] | IL-6 mRNA analysis, % ctrl (IL-6 mRNA [5]) [% ctrl] | IFNγ release from PBMCs, % control (24 h) (IFNγ release from PBMCs) [% control] | IL-17 release from PBMCs, % control (48 h) (IL-17 release from PBMCs; 2.5 μM) [% control] | IL-17 release from PBMCs, % control (48 h) (IL-17 release from PBMCs; 5 μM) [% control] | IL-17 release from PBMCs, % control (48 h) (IL-17 release from PBMCs; 10 μM) [% control] | other results
1 | COc1cc(O)c2c(c1OC)/C=C/C[C@H](O)[C@H](O)C(=O)/C=C\C[C@H](C)OC2=O [RAA, radicicol analog A, reference compound] | 3 | 2 | 3 | 10 | 9 | 11 | 11 | 4 | 4 | 4 | 4 | 64 | 94 |  |  |  |  |  |  |  | IC50 (IL-6 mRNA [2]; unit printed truncated): 128 nM; Htt mRNA stability assay (% inhibition) (Htt mRNA): 35 % inhibition; SNCA mRNA stability assay (% inhibition) (SNCA mRNA): 25 % inhibition; APP mRNA stability assay (% inhibition) (APP mRNA): 5 % inhibition; DNMT1 mRNA stability assay (% inhibition) (DNMT1 mRNA): 19 % inhibition
2 | CC(=O)Oc1ccc2c(=O)c(Oc3ccccc3)coc2c1 [Compound 1782] | 56 | 57 | 28 | 106 | 139 | 89 | 61 | 123 | 115 | 109 | 89 |  |  | 100 | 93 | 93 |  |  |  |  | 
3 | CC(=O)Oc1ccc2c(=O)c(Oc3ccc(C(=O)O)cc3)coc2c1 [Compound 276] |  |  |  |  |  |  |  |  |  |  |  |  |  |  |  |  | 100 | 79 | 46 | 57 | 
4 | COc1ccc(Oc2coc3cc(O)ccc3c2=O)cc1 [Compound 1781] | 74 | 64 | 55 | 115 | 127 | 83 | 57 | 136 | 137 | 104 | 104 | 62 | 41 | 100 | 100 | 92 | 75 |  |  |  | IL-6 mRNA stability assay (% inhibition) (IL-6 mRNA [2]; 10 μM, luciferase, n.a. = no activity): 84 % inhibition; Effect on LPS-induced increase in serum IFN-gamma level (IFN-gamma): significantly blocked; Effect on serum IL-12 (IL-12): trend of effect; Effect on serum IL-4 (IL-4): trend of effect; Effect on serum TNF-alpha (TNF-alpha): trend of effect
5 | COC(=O)c1ccc(Oc2coc3cc(O)ccc3c2=O)cc1 [Compound 333, methyl 4-[(7-hydroxy-4-oxo-4H-chromen-3-yl)oxy]benzoate] | 48 | 43 | 35 | 121 | 158 | 176 | 68 | 105 | 91 | 58 | 45 | 72 | 76 | 49 | 68 | 94 | 43 | 93 | 80 | 41 | IC50 (IL-6 mRNA [2]): 2510 nM; Effect on LPS-induced increase in serum IFN-gamma level (IFN-gamma): significantly blocked; Effect on serum IL-12 (IL-12): trend of effect; Effect on serum IL-4 (IL-4): trend of effect; Effect on serum TNF-alpha (TNF-alpha): trend of effect
